Reference: ChEMBL document CHEMBL6103646 (J Med Chem, 2025)
Active and inactive are the calls of the source. No cut-off for these calls is given here.

Tests used:
[1] = target: Histone deacetylase 2 (Homo sapiens) (UniProt Q92769); assay: Inhibition of HDAC2 in human MM1.S cells assessed as increase in acetylated histone H3 level at 1 uM incubated for 6 hrs by Western blot analysis; type: cell-based
[2] = Stability of compound in human whole blood assessed as half-life at 1 uM measured upto 40 mins by LC-MS/MS analysis; type: ADME, tissue-based
[3] = target: Histone deacetylase 1 (Homo sapiens) (UniProt Q13547); assay: Inhibition of HDAC1 in human MM1.S cells assessed as increase in acetylated histone H3 level at 1 uM incubated for 6 hrs by Western blot analysis; type: cell-based
[4] = target: Protein cereblon/Protein deacetylase HDAC6 (Mus musculus) (UniProt Q9Z2V5+Q8C7D2); assay: In vivo PROTAC activity at CRBN/HDAC6 in female C57BL/6J mouse assessed as reduction in HDAC6 protein level in liver at 5 mg/kg, iv measured after 6 hrs by Western blot analysis relative to control; type: functional, organism-based; set-up: scale not given: the % may be the effect or the level left
MM1.S = assay: Antiproliferative activity against human MM1.S cells assessed as reduction in cell viability measured after 72 hrs by CellTiter-Glo assay; type: functional, cell-based
N2a = assay: Antiproliferative activity against mouse Neuro2a cells assessed as effect on cell viability by CellTiter-Glo assay; type: functional, cell-based
Histone deacetylase 11 = target: T1, Histone deacetylase 11 (Homo sapiens, UniProt Q96DB2); assay: Inhibition of HDAC11 (unknown origin) using FAM-labeled peptide substrate by […] mobility shift assay
T1 sequence (Q96DB2 whole entry): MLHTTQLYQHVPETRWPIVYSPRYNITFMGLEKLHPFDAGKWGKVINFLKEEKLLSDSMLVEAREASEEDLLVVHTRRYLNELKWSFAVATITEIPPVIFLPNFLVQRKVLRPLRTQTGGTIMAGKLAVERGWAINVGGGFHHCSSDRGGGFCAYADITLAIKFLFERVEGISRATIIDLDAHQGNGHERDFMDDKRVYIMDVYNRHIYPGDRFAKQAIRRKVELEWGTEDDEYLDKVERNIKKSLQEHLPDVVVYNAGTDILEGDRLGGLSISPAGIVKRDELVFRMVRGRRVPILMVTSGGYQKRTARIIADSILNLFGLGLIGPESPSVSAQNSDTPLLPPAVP

[5] = target: Protein cereblon/Protein deacetylase HDAC6 (Homo sapiens) (UniProt Q9UBN7+Q96SW2); assay: PROTAC activity at CRBN/HDAC6 in human MM1.S cells assessed as induction of HDAC6 degradation at 0.1 to 1 uM by Western blot analysis; type: cell-based; conditions: dose 0.1-1 µM
Histone deacetylase 8 = target: T2, Histone deacetylase 8 (Homo sapiens, UniProt Q9BY41); assay: Inhibition of HDAC8 (unknown origin) using FAM-labeled peptide substrate by […] mobility shift assay
T2 sequence (Q9BY41 whole entry): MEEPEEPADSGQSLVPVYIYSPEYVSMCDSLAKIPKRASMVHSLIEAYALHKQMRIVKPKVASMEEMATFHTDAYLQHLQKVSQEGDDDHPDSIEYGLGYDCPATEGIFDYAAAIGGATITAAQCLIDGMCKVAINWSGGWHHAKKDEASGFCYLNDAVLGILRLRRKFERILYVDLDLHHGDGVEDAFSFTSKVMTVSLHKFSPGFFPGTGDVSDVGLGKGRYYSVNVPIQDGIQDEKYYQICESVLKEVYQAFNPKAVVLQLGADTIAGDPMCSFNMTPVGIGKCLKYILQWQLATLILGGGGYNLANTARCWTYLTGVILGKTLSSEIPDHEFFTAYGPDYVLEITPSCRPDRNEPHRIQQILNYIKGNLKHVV

[6] = Selectivity index, ratio of IC50 for inhibition of HDAC8 (unknown origin) to IC50 for inhibition of HDAC6 (unknown origin)

Sequence of Histone deacetylase 2 (Homo sapiens) (Q92769 whole entry): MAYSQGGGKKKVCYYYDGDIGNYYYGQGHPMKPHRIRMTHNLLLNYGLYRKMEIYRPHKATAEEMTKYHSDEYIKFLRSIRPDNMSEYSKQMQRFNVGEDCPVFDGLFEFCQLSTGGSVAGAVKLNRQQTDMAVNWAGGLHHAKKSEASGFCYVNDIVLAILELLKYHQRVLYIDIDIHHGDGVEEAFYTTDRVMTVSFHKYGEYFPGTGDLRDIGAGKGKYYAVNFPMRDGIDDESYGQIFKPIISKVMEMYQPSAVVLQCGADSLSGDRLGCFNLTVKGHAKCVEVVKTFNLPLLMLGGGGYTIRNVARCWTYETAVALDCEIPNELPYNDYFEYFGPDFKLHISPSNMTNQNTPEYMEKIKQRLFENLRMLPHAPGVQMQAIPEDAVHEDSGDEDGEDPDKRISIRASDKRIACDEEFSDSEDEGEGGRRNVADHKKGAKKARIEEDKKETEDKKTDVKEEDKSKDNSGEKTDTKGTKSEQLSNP
Sequence of Histone deacetylase 1 (Homo sapiens) (Q13547 whole entry): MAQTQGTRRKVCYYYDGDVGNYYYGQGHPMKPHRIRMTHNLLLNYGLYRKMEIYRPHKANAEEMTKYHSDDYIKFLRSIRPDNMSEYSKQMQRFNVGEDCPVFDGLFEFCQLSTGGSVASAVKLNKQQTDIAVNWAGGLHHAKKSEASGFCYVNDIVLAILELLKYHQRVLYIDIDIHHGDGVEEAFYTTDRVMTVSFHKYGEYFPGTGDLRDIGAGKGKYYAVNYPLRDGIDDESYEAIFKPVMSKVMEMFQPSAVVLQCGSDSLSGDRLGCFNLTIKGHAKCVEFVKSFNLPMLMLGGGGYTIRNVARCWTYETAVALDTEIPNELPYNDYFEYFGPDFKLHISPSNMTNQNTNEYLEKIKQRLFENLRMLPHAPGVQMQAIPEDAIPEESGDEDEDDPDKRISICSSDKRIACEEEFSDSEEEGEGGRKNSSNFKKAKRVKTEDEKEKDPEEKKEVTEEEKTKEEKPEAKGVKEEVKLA
Sequence of Protein cereblon/Protein deacetylase HDAC6 (Mus musculus) (Q8C7D2 whole entry, looked up): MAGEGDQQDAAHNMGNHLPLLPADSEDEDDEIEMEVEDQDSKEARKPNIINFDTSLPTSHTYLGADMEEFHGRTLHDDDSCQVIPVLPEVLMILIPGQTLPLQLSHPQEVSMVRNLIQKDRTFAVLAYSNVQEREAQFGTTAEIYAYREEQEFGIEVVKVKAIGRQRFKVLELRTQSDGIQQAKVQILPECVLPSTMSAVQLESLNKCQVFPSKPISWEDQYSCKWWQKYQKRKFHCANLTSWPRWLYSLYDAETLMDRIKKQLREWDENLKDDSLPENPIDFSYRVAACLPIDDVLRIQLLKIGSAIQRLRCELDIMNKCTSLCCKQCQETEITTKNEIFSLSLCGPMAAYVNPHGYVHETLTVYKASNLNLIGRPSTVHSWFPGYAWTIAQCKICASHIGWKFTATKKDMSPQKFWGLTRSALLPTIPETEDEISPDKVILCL
Sequence of Protein cereblon/Protein deacetylase HDAC6 (Mus musculus) (Q9Z2V5 whole entry, looked up): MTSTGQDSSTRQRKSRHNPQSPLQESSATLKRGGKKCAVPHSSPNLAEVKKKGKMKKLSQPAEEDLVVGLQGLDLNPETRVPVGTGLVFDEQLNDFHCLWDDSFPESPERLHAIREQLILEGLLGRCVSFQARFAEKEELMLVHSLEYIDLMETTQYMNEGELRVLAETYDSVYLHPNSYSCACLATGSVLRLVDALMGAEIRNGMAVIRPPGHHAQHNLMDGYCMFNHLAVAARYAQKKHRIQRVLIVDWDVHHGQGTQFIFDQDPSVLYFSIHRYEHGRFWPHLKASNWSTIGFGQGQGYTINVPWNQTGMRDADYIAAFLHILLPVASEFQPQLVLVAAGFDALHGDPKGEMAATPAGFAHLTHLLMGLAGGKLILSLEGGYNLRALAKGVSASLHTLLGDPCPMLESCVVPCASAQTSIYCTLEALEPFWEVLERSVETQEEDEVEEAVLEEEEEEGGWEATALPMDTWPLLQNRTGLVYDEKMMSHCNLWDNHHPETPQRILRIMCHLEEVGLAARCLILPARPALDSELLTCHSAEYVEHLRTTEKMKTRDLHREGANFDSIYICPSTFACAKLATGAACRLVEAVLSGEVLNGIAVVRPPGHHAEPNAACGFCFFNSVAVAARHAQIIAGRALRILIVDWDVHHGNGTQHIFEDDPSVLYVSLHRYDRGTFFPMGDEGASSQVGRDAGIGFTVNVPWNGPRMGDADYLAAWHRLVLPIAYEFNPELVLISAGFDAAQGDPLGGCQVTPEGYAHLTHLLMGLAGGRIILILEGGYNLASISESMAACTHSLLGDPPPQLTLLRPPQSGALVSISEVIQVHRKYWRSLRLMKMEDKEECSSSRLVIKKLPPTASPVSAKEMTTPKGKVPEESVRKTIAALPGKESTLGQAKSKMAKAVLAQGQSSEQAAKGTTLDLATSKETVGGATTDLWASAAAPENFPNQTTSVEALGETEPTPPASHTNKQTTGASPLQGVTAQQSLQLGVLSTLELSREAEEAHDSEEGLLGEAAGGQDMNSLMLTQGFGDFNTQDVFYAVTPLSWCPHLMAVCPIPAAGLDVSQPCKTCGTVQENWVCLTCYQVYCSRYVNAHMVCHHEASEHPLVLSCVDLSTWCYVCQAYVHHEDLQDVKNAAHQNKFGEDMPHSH
Sequence of Protein cereblon/Protein deacetylase HDAC6 (Homo sapiens) (Q96SW2 whole entry, looked up): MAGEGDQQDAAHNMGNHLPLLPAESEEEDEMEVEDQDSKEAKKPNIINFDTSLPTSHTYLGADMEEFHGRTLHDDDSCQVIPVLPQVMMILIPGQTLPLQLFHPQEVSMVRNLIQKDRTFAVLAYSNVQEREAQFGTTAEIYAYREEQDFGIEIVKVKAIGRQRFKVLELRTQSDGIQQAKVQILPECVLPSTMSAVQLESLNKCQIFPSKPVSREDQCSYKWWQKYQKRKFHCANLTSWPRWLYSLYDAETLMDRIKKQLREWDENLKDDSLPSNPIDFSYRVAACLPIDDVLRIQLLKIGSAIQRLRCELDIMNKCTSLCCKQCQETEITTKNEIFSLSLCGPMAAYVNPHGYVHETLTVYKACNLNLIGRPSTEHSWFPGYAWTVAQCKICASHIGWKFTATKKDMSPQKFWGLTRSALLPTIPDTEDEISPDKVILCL
Sequence of Protein cereblon/Protein deacetylase HDAC6 (Homo sapiens) (Q9UBN7 whole entry, looked up): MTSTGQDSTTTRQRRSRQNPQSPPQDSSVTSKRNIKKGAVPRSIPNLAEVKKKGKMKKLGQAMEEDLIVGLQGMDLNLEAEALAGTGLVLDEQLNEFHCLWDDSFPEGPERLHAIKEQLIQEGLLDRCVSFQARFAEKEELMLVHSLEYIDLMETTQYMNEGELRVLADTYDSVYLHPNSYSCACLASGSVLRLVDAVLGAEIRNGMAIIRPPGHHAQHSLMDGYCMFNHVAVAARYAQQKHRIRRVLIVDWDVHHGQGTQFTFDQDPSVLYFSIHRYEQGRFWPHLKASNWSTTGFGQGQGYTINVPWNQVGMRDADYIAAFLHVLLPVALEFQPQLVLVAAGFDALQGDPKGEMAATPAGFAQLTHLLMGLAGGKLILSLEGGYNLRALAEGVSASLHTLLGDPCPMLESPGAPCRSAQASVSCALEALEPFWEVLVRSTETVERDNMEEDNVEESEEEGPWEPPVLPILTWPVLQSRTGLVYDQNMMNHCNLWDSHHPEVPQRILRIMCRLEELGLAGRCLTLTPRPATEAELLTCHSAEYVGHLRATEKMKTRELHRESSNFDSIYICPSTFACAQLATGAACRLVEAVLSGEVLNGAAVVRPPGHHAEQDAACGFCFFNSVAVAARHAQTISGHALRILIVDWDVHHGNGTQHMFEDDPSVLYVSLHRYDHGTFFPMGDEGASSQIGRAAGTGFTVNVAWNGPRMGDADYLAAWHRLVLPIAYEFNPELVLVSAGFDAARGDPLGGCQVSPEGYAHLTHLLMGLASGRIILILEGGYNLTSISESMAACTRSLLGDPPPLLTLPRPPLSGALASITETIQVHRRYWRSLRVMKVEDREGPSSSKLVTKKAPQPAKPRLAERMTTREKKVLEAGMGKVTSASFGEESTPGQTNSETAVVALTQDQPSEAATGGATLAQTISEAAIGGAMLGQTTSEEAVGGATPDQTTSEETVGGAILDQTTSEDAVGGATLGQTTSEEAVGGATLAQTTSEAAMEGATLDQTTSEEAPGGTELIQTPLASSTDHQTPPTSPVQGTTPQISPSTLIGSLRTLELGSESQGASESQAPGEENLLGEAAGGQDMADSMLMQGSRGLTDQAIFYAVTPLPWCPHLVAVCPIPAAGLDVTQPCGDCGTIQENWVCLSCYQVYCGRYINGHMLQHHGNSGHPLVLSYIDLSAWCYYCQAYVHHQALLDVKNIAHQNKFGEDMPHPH

O=C1CCC(N2C(=O)c3cccc(NCCOCCOCCN(Cc4ccc(C(=O)NO)cc4)Cc4cccnc4)c3C2=O)C(=O)N1 (stereo unspecified)
inhibition [1]: inactive | half-life at 1 µM [2]: 63.8 min | inhibition [3]: inactive

O=C1CCC(N2C(=O)c3cccc(NCCN(Cc4ccc(C(=O)NO)cc4)Cc4cccnc4)c3C2=O)C(=O)N1 (stereo unspecified)
inhibition [1]: inactive | half-life at 1 µM [2]: 77.7 min | inhibition [3]: inactive

O=C1CCC(N2C(=O)c3cccc(NCCOCCn4cc(CN(Cc5ccc(C(=O)NO)cc5)Cc5cccnc5)nn4)c3C2=O)C(=O)N1 (stereo unspecified)
inhibition [1]: inactive | Activity [4]: 60% | Activity (MM1.S): Active; Minimal Effect Observed Compared To To-317,Ricolinostat An D Citarinostat | half-life at 1 µM [2]: 80.1 min | inhibition [3]: inactive | Activity (N2a): inactive

O=C1CCC(N2C(=O)c3cccc(NCCCCCCn4cc(CN(Cc5ccc(C(=O)NO)cc5)Cc5cccnc5)nn4)c3C2=O)C(=O)N1 (stereo unspecified)
inhibition [1]: inactive | half-life at 1 µM [2]: 42.2 min | inhibition [3]: inactive

O=C1CCC(N2C(=O)c3cccc(NCCOCCOCCn4cc(CCCCN(Cc5ccc(C(=O)NO)cc5)Cc5cccnc5)nn4)c3C2=O)C(=O)N1 (stereo unspecified)
inhibition [1]: inactive | half-life at 1 µM [2]: 51.8 min | inhibition [3]: inactive

O=C1CCC(N2C(=O)c3cccc(NCCCn4cc(CN(Cc5ccc(C(=O)NO)cc5)Cc5cccnc5)nn4)c3C2=O)C(=O)N1 (stereo unspecified)
inhibition [1]: inactive | half-life at 1 µM [2]: 44.3 min | inhibition [3]: inactive

O=C1CCC(N2C(=O)c3cccc(NCCCn4cc(CCCCN(Cc5ccc(C(=O)NO)cc5)Cc5cccnc5)nn4)c3C2=O)C(=O)N1 (stereo unspecified)
inhibition [1]: inactive | Activity (MM1.S): inactive | half-life at 1 µM [2]: 63.2 min | inhibition [3]: inactive | Activity (N2a): inactive

O=C1CCC(N2C(=O)c3cccc(NCCOCCOCCn4cc(CN(Cc5ccc(C(=O)NO)cc5)Cc5cccnc5)nn4)c3C2=O)C(=O)N1 (stereo unspecified)
inhibition [1]: inactive | half-life at 1 µM [2]: 37.2 min | IC50 (Histone deacetylase 11): > 10 µM | inhibition [3]: inactive

CN1C(=O)CCC(N2C(=O)c3cccc(NCCOCCOCCn4cc(CN(Cc5ccc(C(=O)NO)cc5)Cc5cccnc5)nn4)c3C2=O)C1=O (stereo unspecified)
Activity [5]: inactive

O=C1CCC(N2C(=O)c3cccc(NCCOCCn4cc(CCCCN(Cc5ccc(C(=O)NO)cc5)Cc5cccnc5)nn4)c3C2=O)C(=O)N1 (stereo unspecified)
inhibition [1]: inactive | half-life at 1 µM [2]: 60.8 min | inhibition [3]: inactive

O=C1CCC(N2C(=O)c3cccc(NCCCCCCn4cc(CCCCN(Cc5ccc(C(=O)NO)cc5)Cc5cccnc5)nn4)c3C2=O)C(=O)N1 (stereo unspecified)
inhibition [1]: inactive | half-life at 1 µM [2]: 45.7 min | inhibition [3]: inactive

O=C1CCC(N2C(=O)c3cccc(NCCOCCN(Cc4ccc(C(=O)NO)cc4)Cc4cccnc4)c3C2=O)C(=O)N1 (stereo unspecified)
inhibition [1]: inactive | half-life at 1 µM [2]: 81.5 min | inhibition [3]: inactive

O=C1CCC(N2C(=O)c3cccc(NCCCCN(Cc4ccc(C(=O)NO)cc4)Cc4cccnc4)c3C2=O)C(=O)N1 (stereo unspecified)
inhibition [1]: inactive | half-life at 1 µM [2]: 87.1 min | inhibition [3]: inactive

O=C(NO)c1ccc(CN(Cc2cccnc2)S(=O)(=O)c2cc(F)c(F)c(F)c2F)cc1
IC50 (Histone deacetylase 8): 31.6 nM | Ratio IC50 [6]: 158 | IC50 (Histone deacetylase 11): > 1 µM
